According to publication PMC10870767, “Extraction, Purification, and Characterization of Olive (Olea europaea L., cv. Chemlal) Polyphenol Oxidase” (Journal of Agricultural and Food Chemistry, 2024):
Several values for one entry are separate records, joined by “and”; a condition that tells them apart may be missing. Equal values may be shown once. Read-outs that look alike come from different tables or passages of the source.

Legend:
OePPO1 = assay: Effect of metal ions on OePPO1 activity; type: biochemical, Olea europaea L., cv. Chemlal
apricot PPO = conditions: cited from earlier work; for residual activity: 10 mM inhibitor
mango PPO = conditions: cited from earlier work; for residual activity: 10 mM inhibitor
blueberry PPO = system: blueberry PPO; design: method as in PMID 27719900; conditions: cited from earlier work
[1] = target: T1, olive polyphenol oxidase (OePPO) (Olea europaea, UniProt A0A8S0TLT4); assay: Effect of inhibitors on OePPO activity; type: biochemical, Olea europaea L., cv. Chemlal; conditions: 10 mM catechol; for IC100: read-out: concentration for complete suppression/inhibition of OePPO activity
T1 sequence (A0A8S0TLT4 entry or part of it): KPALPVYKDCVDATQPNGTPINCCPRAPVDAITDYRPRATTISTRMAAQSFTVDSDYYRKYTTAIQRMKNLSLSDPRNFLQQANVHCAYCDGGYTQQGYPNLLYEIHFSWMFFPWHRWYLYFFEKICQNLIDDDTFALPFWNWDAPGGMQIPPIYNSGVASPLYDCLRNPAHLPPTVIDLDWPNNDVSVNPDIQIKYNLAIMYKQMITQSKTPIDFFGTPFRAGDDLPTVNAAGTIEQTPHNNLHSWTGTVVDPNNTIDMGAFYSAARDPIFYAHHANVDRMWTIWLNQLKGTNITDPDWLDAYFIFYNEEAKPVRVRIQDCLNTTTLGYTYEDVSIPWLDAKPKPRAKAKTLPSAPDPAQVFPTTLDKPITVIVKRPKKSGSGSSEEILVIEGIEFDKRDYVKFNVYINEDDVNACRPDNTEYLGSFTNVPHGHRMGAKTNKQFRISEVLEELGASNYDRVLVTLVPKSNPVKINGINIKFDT
Method: (§1) OePPO activity measurements were carried out spectrophotometrically at 25 °C using a 96-well microplate reader (Infinite M200, Tecan). The assay mixture, with a volume of 200 μL, was monitored for the increase in absorbance at 410 nm as the enzyme converted catechol, starting from ∼25 s after mixing (time required for pipetting and initiating the microplate reader) and continuing until the reaction curve reached a plateau phase (after ∼15 min). The standard reaction mixture consisted of 0.5 μg of enzyme and 10 mM catechol in 50 mM sodium phosphate buffer (pH 7.5) along with the optimal concentration of SDS (5 mM) as determined. […] OePPO activity was assessed by calculating the slope of the initial linear segment of the experimental curves, where the absorbance was plotted against time. The activity was expressed in U/mg, with one unit of enzymatic activity (U) defined as the amount of enzyme that catalyzed the formation of 1 μmol of quinones per minute (1 U = 1 μmol/min). All experiments were conducted in triplicate, and the protein concentrations in the enzyme solutions were determined using the Bradford method[15] with bovine serum albumin as a standard.
The optimum concentration range for each inhibitor was established through preliminary experiments (data not shown). OePPO activity was measured using the same assay conditions previously described, and the results were expressed as the percentage of residual activity relative to the control mixture (100%) without inhibitors. The half inhibitory concentration (IC50) was determined for each inhibitor using nonlinear regression.

[2] = target: T1, olive polyphenol oxidase (OePPO); assay: Enzyme kinetics and substrate specificity of purified OePPO; type: biochemical, Olea europaea L., cv. Chemlal; conditions: for kcat: substrate of purified OePPO, 50 mM sodium phosphate buffer pH 7.5, 5 mM SDS, 25 °C
Method: as §1

[3] = target: T1, olive polyphenol oxidase (OePPO); assay: Effect of SDS on OePPO activity (activation of latent enzyme); type: biochemical, Olea europaea L., cv. Chemlal
Method: as §1
The effect of different concentrations of SDS (0–100 mM) on OePPO activity was investigated.

banana PPO = system: banana PPO; design: method as in doi:10.1021/jf980473d; conditions: cited from earlier work
[4] = 1 mM metal salt, 50 mM sodium citrate buffer, 5 mM SDS, control without metal ions = 100%
[5] = 5 mM metal salt, 50 mM sodium citrate buffer, 5 mM SDS, control without metal ions = 100%
[6] = 10 mM metal salt, 50 mM sodium citrate buffer, 5 mM SDS, control without metal ions = 100%
[7] = 100 mM metal salt, 50 mM sodium citrate buffer, 5 mM SDS, control without metal ions = 100%

## [Cl-].[Na+] [NaCl]
OePPO1
  relative activity: 101 ± 3.1% and 99 ± 2.3% and 103 ± 2.8% and 88 ± 5.4%

## N[C@@H](CS)C(=O)O [L-cysteine]
Apricot PPO
  concentration with complete inhibitory effect: around 1 mM
Mango PPO
  concentration with complete inhibitory effect: around 1 mM
Blueberry PPO
  concentration with complete inhibitory effect: around 1 mM

## [Cl-].[Cl-].[Zn+2] [ZnCl2]
OePPO1; [4]
  relative activity: 99 ± 1.2%
OePPO1; [5]
  relative activity: 108.9 ± 0.92%
OePPO1; 5 mM metal salt, 50 mM sodium citrate buffer, 5 mM SDS, control without metal ions = 100%, listed as Zn^2+
  relative activity: 109%
OePPO1; [6]
  relative activity: 107.3 ± 0.54%
OePPO1; [7]
  relative activity: 15 ± 5.1%
OePPO1; 100 mM metal salt, 50 mM sodium citrate buffer, 5 mM SDS, control without metal ions = 100%, listed as Zn^2+
  relative activity: drastically reduced

## [Cl-].[K+] [KCl]
OePPO1; [4]
  relative activity: 98 ± 3.8%
OePPO1; [5]
  relative activity: 98 ± 1.4%
OePPO1; [6]
  relative activity: 96 ± 2.1%
OePPO1; [7]
  relative activity: 64 ± 2.8%

## O=C1O[C@H]([C@@H](O)CO)C(O)=C1O [ascorbic acid]
[1]; pH 7.5, 5 mM SDS
  IC100: 1000 µM
Apricot PPO
  concentration with complete inhibitory effect: around 1 mM
Mango PPO
  concentration with complete inhibitory effect: around 1 mM
Blueberry PPO
  concentration with complete inhibitory effect: around 1 mM

## NC(=S)Nc1ccccc1 [N-phenylthiourea]
[1]; pH 7.5, 5 mM SDS
  concentration that completely inhibited enzymatic activity: 50 µM

## [Cl][Mn][Cl] [MnCl2]
OePPO1; [4]
  relative activity: 99 ± 2.1%
OePPO1; [5]
  relative activity: 92.1 ± 0.84%
OePPO1; [6]
  relative activity: 60 ± 3.2%
OePPO1; [7]
  relative activity: 0.0 ± 0.00%

## [Cl][Fe][Cl] [FeCl2]
OePPO1; [4]
  relative activity: 87 ± 2.3%
OePPO1; 1 mM metal salt, 50 mM sodium citrate buffer, 5 mM SDS, control without metal ions = 100%, listed as Fe^2+
  relative activity: 87%
OePPO1; [5]
  relative activity: 74 ± 1.7%
OePPO1; [6]
  relative activity: 56 ± 2.0%
OePPO1; [7]
  relative activity: 22 ± 6.6%

## [Cl][Cr]([Cl])[Cl] [CrCl3]
OePPO1; [4]
  relative activity: 80 ± 2.8%
OePPO1; 1 mM metal salt, 50 mM sodium citrate buffer, 5 mM SDS, control without metal ions = 100%, listed as Cr^3+
  relative activity: 80%
OePPO1; [5]
  relative activity: 63 ± 1.6%
OePPO1; [6]
  relative activity: 0.0 ± 0.00%
OePPO1; 10 mM metal salt, 50 mM sodium citrate buffer, 5 mM SDS, control without metal ions = 100%, listed as Cr^3+
  relative activity: complete suppression
OePPO1; [7]
  relative activity: 0.0 ± 0.00%

## O=c1cc(CO)occ1O [Kojic acid, kojic acid]
Mango PPO; 10 mM
  inhibition of enzymatic browning: effectively inhibiting enzymatic browning

## OCCc1ccc(O)cc1 [tyrosol]
[2]; monophenolase activity, compared with tyramine
  processed faster than tyramine: > 10 times

## NCCc1ccc(O)cc1 [tyramine]
[2]
  kcat: 0.093 ± 0.005 s^–1

## O=S(O)S(=O)(=O)O [sodium metabisulfite]
[1]; pH 7.5, 5 mM SDS
  IC100: 1000 µM
Apricot PPO
  concentration with complete inhibitory effect: around 1 mM
Mango PPO
  concentration with complete inhibitory effect: around 1 mM
Blueberry PPO
  concentration with complete inhibitory effect: around 1 mM

## O=C(O)CC(O)(CC(=O)O)C(=O)O [citric acid]
Apricot PPO
  residual activity: exceeding 80%
Mango PPO
  residual activity: > 60%

## O=S(=O)([O-])[O-].[Cu+2] [CuSO4]
OePPO1; [4]
  relative activity: 106 ± 4.3%
OePPO1; [5]
  relative activity: 112 ± 1.9%
OePPO1; 5 mM metal salt, 50 mM sodium citrate buffer, 5 mM SDS, control without metal ions = 100%, listed as Cu^2+
  relative activity: 112%
OePPO1; [6]
  relative activity: 110 ± 3.9%
OePPO1; [7]
  relative activity: 37 ± 2.6%
OePPO1; 100 mM metal salt, 50 mM sodium citrate buffer, 5 mM SDS, control without metal ions = 100%, listed as Cu^2+
  relative activity: drastically reduced

## N[C@@H](CCC(=O)N[C@@H](CS)C(=O)NCC(=O)O)C(=O)O [glutathione, reduced, reduced glutathione]
[1]; 50 mM sodium phosphate buffer pH 7.5, 5 mM SDS, 25 °C, nonlinear regression
  IC50: 62 ± 3 µM
[1]; pH 7.5, 5 mM SDS
  concentration for complete suppression/inhibition of OePPO activity: 1 mM
Apricot PPO
  concentration with complete inhibitory effect: around 1 mM
Mango PPO
  concentration with complete inhibitory effect: around 1 mM
Blueberry PPO
  concentration with complete inhibitory effect: around 1 mM

## [Ca+2].[Cl-].[Cl-] [CaCl2]
OePPO1; [4]
  relative activity: 103 ± 2.0%
OePPO1; [5]
  relative activity: 96 ± 2.8%
OePPO1; [6]
  relative activity: 93 ± 2.9%
OePPO1; [7]
  relative activity: 66 ± 4.1%

## [Cl][Al]([Cl])[Cl] [AlCl3]
OePPO1; [4]
  relative activity: 98 ± 1.9%
OePPO1; [5]
  relative activity: 90 ± 1.2%
OePPO1; [6]
  relative activity: 82 ± 2.7%
OePPO1; [7]
  relative activity: 0.0 ± 0.00%

## O=S(=O)([O-])[O-].[Ni+2] [NiSO4]
OePPO1; [4]
  relative activity: 103 ± 2.3%
OePPO1; [5]
  relative activity: 101.3 ± 0.57%
OePPO1; [6]
  relative activity: 92 ± 1.7%
OePPO1; [7]
  relative activity: 88 ± 4.3%

## NCCc1ccc(O)c(O)c1 [dopamine]
[2]
  kcat: 13.98 ± 0.07 s^–1

## O=C(O)CCC(=O)O [succinic acid]
Apricot PPO
  residual activity: exceeding 80%
Mango PPO
  residual activity: > 60%

## CCCCCCCCCCCCOS(=O)(=O)[O-].[Na+] [SDS, sodium lauryl sulfate]
[3]; 5 mM SDS, phosphate buffer pH 7.5
  increase of OePPO activity versus absence of SDS: ~10 fold
[3]; 100 mM SDS, phosphate buffer pH 7.5
  OePPO activity compared to the absence of SDS: three times the activity
[3]; phosphate buffer pH 7.5, catechol
  optimal SDS concentration for full activation of latent OePPO: 5 mM
Apricot PPO
  SDS concentration for full activation of latent PPO: 2 mM
Mango PPO
  SDS concentration necessary to achieve full activity: 6.93 mM
Banana PPO
  SDS concentration for full activation of latent PPO: 2 mM

## [Cl-].[Cl-].[Mg+2] [MgCl2]
OePPO1; [4]
  relative activity: 100 ± 2.7%
OePPO1; [5]
  relative activity: 97 ± 1.4%
OePPO1; [6]
  relative activity: 95 ± 1.8%
OePPO1; [7]
  relative activity: 72 ± 3.4%
